The target of one assay is T1, BaiH from C. scindens ([Clostridium] scindens, UniProt P32370).
T1 sequence (P32370 1-661): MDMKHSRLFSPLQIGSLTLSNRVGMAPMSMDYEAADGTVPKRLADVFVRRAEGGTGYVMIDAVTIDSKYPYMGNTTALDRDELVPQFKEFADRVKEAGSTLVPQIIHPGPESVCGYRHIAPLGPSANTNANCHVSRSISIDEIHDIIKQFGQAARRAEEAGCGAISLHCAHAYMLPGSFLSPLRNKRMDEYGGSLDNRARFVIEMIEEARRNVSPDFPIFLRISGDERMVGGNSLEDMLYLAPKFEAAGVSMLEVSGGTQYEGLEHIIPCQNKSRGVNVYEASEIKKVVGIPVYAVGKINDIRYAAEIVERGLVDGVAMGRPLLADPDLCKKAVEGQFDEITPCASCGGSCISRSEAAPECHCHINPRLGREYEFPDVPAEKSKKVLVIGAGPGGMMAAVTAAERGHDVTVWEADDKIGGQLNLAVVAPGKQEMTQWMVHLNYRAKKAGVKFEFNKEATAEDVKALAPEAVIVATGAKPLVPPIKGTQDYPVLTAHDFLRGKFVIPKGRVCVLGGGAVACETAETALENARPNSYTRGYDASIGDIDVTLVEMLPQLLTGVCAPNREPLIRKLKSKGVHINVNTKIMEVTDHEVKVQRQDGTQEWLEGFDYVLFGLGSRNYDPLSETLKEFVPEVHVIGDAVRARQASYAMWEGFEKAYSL
In words: LC-MS of acid-precipitated purified enzyme. It is filed as binding. As to conditions: as purified after expression and lysis with added flavin.

The target in a further assay is T2, BaiCD from C. hiranonis (Peptacetobacter hiranonis, UniProt Q9RB48).
T2 sequence (Q9RB48 1-639): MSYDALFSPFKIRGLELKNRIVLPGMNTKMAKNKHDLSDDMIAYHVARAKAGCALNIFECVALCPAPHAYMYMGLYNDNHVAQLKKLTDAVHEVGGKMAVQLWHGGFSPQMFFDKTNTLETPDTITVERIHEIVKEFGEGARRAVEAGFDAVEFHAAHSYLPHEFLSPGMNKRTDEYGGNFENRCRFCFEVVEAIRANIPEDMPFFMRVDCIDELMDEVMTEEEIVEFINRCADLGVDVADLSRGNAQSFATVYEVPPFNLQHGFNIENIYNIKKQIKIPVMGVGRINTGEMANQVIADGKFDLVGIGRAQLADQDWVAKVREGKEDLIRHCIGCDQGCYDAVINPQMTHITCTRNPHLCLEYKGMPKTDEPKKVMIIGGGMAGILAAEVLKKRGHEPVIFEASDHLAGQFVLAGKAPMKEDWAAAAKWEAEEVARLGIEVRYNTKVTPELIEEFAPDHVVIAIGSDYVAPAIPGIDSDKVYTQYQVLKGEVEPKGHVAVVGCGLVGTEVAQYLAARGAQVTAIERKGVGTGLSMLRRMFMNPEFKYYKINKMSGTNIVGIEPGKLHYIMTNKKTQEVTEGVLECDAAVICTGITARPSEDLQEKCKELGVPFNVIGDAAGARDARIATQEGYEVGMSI
Kind of assay: LC-MS of acid-precipitated purified enzyme. It is filed as binding. As to conditions: as purified after expression and lysis with added flavin.

The next assay deals with T3, BaiA2 from C. scindens ([Clostridium] scindens, UniProt P19337).
T3 sequence (P19337 1-249): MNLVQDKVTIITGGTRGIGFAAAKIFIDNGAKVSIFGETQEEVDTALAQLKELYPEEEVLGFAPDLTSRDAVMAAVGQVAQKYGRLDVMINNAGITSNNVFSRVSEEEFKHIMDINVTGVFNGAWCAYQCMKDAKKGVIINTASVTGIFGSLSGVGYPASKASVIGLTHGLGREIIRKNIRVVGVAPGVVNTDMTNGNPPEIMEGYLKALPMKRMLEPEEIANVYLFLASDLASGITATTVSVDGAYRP
Kind of assay: LC-MS extracted ion chromatograms. It is filed as biochemical. As to conditions: reduction to DCA; experiment performed once.

As to `Cc1cc2nc3c(=O)[nH]c(=O)nc-3n(C[C@H](O)[C@H](O)[C@H](O)COP(=O)(O)O)c2cc1C` [FMN], the “LC-MS of acid-precipitated purified enzyme; UV-vis” value at BaiH from C. scindens was “The presence of FAD and FMN were confirmed by precipitating purified enzyme with sulfuric acid”; on BaiCD from C. hiranonis, “The presence of FAD and FMN were confirmed by precipitating purified enzyme with sulfuric acid”.

Take `C[C@H](CCC(=O)O)[C@H]1CC[C@H]2[C@@H]3CC[C@@H]4CC(=O)CC[C@]4(C)[C@H]3C[C@H](O)[C@]12C` [compound 8, 3-oxo-deoxycholic acid]: at BaiA2 from C. scindens, the “LC-MS extracted ion chromatograms” value is listed as “conversion of 3-oxo-DCA to DCA by recombinant BaiA2”.

On to `Cc1cc2nc3c(=O)[nH]c(=O)nc-3n(C[C@H](O)[C@H](O)[C@H](O)COP(=O)(O)OP(=O)(O)OC[C@H]3O[C@@H](n4cnc5c(N)ncnc54)[C@H](O)[C@@H]3O)c2cc1C` [FAD], for which the “LC-MS of acid-precipitated purified enzyme; UV-vis” value was “The presence of FAD and FMN were confirmed by precipitating purified enzyme with sulfuric acid” at BaiH from C. scindens; “The presence of FAD and FMN were confirmed by precipitating purified enzyme with sulfuric acid” at BaiCD from C. hiranonis.
